Laboratory results from US8076487B2, “Pyridone derivative and herbicide” (Kumiai Chemical Industry Co., Ltd., priority 2006, dated 2011).

Assays:
Format in all cases: in vivo
[1] = tested on: green foxtail (Setaria viridis (L.) P. Beauv.); assay: Test Example 3: herbicidal effect by application to upland field (foliage treatment); conditions: foliage treatment, 1,000 g active ingredient per 1 hectare, 14th day after application, greenhouse
Procedure, shortened: (§1)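 Read-out is a visual herbicidal-effect grade on a standard scale, taken on the 14th day after a single foliar spray. The spray was wettable powder diluted in water, 1,000 g active ingredient/ha at 1,000 L/ha, applied to greenhouse plants two weeks after sowing.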

[2] = tested on: velvetleaf (Abutilon theophrasti medicus); assay: as above; conditions: foliage treatment, 1,000 g active ingredient per 1 hectare, 14th day after application, greenhouse
Procedure, shortened: as §1

[3] = tested on: slender amaranth (Amaranthus viridis L.); assay: as above; conditions: foliage treatment, 1,000 g active ingredient per 1 hectare, 14th day after application, greenhouse
Procedure, shortened: as §1

[4] = tested on: barnyardgrass (Echinochloa crus-galli (L.) P. Beauv. var. crus-galli); assay: as above; conditions: foliage treatment, 1,000 g active ingredient per 1 hectare, 14th day after application, greenhouse
Procedure, shortened: as §1

[5] = tested on: heartshape false pickerelweed (Monochoria vaginalis (Burm.f.) C.Presl); assay: Test Example 1: herbicidal effect by soil application to paddy field; conditions: paddy field soil application; active ingredient 1,000 g per 1 hectare; wettable powder added dropwise to water surface the day after sowing; examined on the 21st day after application
Procedure, shortened: (§2)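 Under greenhouse conditions, seeds sown on puddled paddy soil in 100 cm2 pots under 3 cm of standing water received the test compound; injury was assessed with a standard scoring scheme three weeks (day 21) after treatment.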

[6] = tested on: early watergrass (Echinochloa oryzicola Vasing); assay: as above; conditions: paddy field soil application; active ingredient 1,000 g per 1 hectare; wettable powder added dropwise to water surface the day after sowing; examined on the 21st day after application
Procedure, shortened: as §2

[7] = tested on: Japanese bulrush (Scirpus juncoides Roxb.); assay: as above; conditions: paddy field soil application; active ingredient 1,000 g per 1 hectare; wettable powder added dropwise to water surface the day after sowing; examined on the 21st day after application
Procedure, shortened: as §2

[8] = tested on: green foxtail (Setaria viridis (L.) P. Beauv.); assay: Test Example 2: herbicidal effect by soil application to upland field; conditions: soil surface spray, upland field soil, 1,000 g active ingredient per hectare, 21st day after application
Procedure, shortened: (§3)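 Using a small sprayer, we treat the soil surface of pots just after sowing and covering seeds. The aqueous wettable powder supplies 1,000 g a.i./ha in 1,000 L water/ha; after greenhouse growth, injury is scored on day 21 using a standard rating.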

[9] = tested on: velvetleaf (Abutilon theophrasti medicus); assay: as above; conditions: soil surface spray, upland field soil, 1,000 g active ingredient per hectare, 21st day after application
Procedure, shortened: as §3

[10] = tested on: slender amaranth (Amaranthus viridis L.); assay: as above; conditions: soil surface spray, upland field soil, 1,000 g active ingredient per hectare, 21st day after application
Procedure, shortened: as §3

[11] = tested on: barnyardgrass (Echinochloa crus-galli (L.) P. Beauv. var. crus-galli); assay: as above; conditions: soil surface spray, upland field soil, 1,000 g active ingredient per hectare, 21st day after application
Procedure, shortened: as §3

Row | SMILES | herbicidal effect, Green Foxtail [1] | herbicidal effect, Velvetleaf [2] | herbicidal effect, Slender Amaranth [3] | herbicidal effect, Barnyardgrass [4] | herbicidal effect, Monochoria vaginalis (Burm. f.) C. Presl [5] | herbicidal effect, Echinochloa oryzicola Vasing [6] | herbicidal effect, Scirpus juncoides Roxb. [7] | herbicidal effect (index), Green Foxtail [8] | herbicidal effect (index), Velvetleaf [9] | herbicidal effect (index), Slender Amaranth [10] | herbicidal effect (index), Barnyardgrass [11]
1 | CCCS(=O)(=O)Oc1c(C(=O)c2ccc(C(F)(F)F)n(-c3ccc4c(c3)OCO4)c2=O)cnn1C [IV-98] | 4 (70 to less than 90% of herbicidal effect and crop phytotoxicity) | 5 (90% or more of herbicidal effect and crop phytotoxicity) | 5 (90% or more of herbicidal effect and crop phytotoxicity) | 5 (90% or more of herbicidal effect and crop phytotoxicity) | 5 (90% or more of herbicidal effect and crop phytotoxicity) | 5 (90% or more of herbicidal effect and crop phytotoxicity) | 5 (90% or more of herbicidal effect and crop phytotoxicity) | 5 (90% or more of herbicidal effect and crop phytotoxicity) | 5 (90% or more of herbicidal effect and crop phytotoxicity) | 5 (90% or more of herbicidal effect and crop phytotoxicity) | 3 (50 to less than 70% of herbicidal effect and crop phytotoxicity)
2 | CCCS(=O)(=O)Oc1c(C(=O)c2ccc(C(F)(F)F)n(-c3ccc4c(c3)OCO4)c2=O)cnn1CC [IV-99] | 5 (90% or more of herbicidal effect and crop phytotoxicity) | 5 (90% or more of herbicidal effect and crop phytotoxicity) | 5 (90% or more of herbicidal effect and crop phytotoxicity) | 5 (90% or more of herbicidal effect and crop phytotoxicity) | 5 (90% or more of herbicidal effect and crop phytotoxicity) | 5 (90% or more of herbicidal effect and crop phytotoxicity) | 5 (90% or more of herbicidal effect and crop phytotoxicity) | 3 (50 to less than 70% of herbicidal effect and crop phytotoxicity) | 4 (70 to less than 90% of herbicidal effect and crop phytotoxicity) | 4 (70 to less than 90% of herbicidal effect and crop phytotoxicity) | 5 (90% or more of herbicidal effect and crop phytotoxicity)
3 | Cn1ncc(C(=O)c2ccc(C(F)(F)F)n(-c3ccc4c(c3)OCCO4)c2=O)c1O [IV-101] | 3 (50 to less than 70% of herbicidal effect and crop phytotoxicity) | 4 (70 to less than 90% of herbicidal effect and crop phytotoxicity) | 4 (70 to less than 90% of herbicidal effect and crop phytotoxicity) | 5 (90% or more of herbicidal effect and crop phytotoxicity) | 5 (90% or more of herbicidal effect and crop phytotoxicity) | 5 (90% or more of herbicidal effect and crop phytotoxicity) | 5 (90% or more of herbicidal effect and crop phytotoxicity) | 4 (70 to less than 90% of herbicidal effect and crop phytotoxicity) | 4 (70 to less than 90% of herbicidal effect and crop phytotoxicity) | 5 (90% or more of herbicidal effect and crop phytotoxicity) | 5 (90% or more of herbicidal effect and crop phytotoxicity)
4 | CCCS(=O)(=O)Oc1c(C(=O)c2ccc(C(F)(F)F)n(CC3CC(C)=NO3)c2=O)cnn1CC (stereo not shown) [IV-106] | 5 (90% or more of herbicidal effect and crop phytotoxicity) | 5 (90% or more of herbicidal effect and crop phytotoxicity) | 5 (90% or more of herbicidal effect and crop phytotoxicity) | 5 (90% or more of herbicidal effect and crop phytotoxicity) | 5 (90% or more of herbicidal effect and crop phytotoxicity) | 5 (90% or more of herbicidal effect and crop phytotoxicity) | 5 (90% or more of herbicidal effect and crop phytotoxicity) | 5 (90% or more of herbicidal effect and crop phytotoxicity) | 5 (90% or more of herbicidal effect and crop phytotoxicity) | 5 (90% or more of herbicidal effect and crop phytotoxicity) | 5 (90% or more of herbicidal effect and crop phytotoxicity)
5 | CCn1ncc(C(=O)c2ccc(C(F)(F)F)n(CC3CC(C)=NO3)c2=O)c1O (stereo not shown) [IV-107] | 5 (90% or more of herbicidal effect and crop phytotoxicity) | 5 (90% or more of herbicidal effect and crop phytotoxicity) | 5 (90% or more of herbicidal effect and crop phytotoxicity) | 5 (90% or more of herbicidal effect and crop phytotoxicity) | 5 (90% or more of herbicidal effect and crop phytotoxicity) | 5 (90% or more of herbicidal effect and crop phytotoxicity) | 5 (90% or more of herbicidal effect and crop phytotoxicity) | 5 (90% or more of herbicidal effect and crop phytotoxicity) | 5 (90% or more of herbicidal effect and crop phytotoxicity) | 5 (90% or more of herbicidal effect and crop phytotoxicity) | 5 (90% or more of herbicidal effect and crop phytotoxicity)
6 | CCCS(=O)(=O)Oc1c(C(=O)c2ccc(C(F)(F)F)n(CC(OC)OC)c2=O)cnn1C [IV-118] | 5 (90% or more of herbicidal effect and crop phytotoxicity) | 5 (90% or more of herbicidal effect and crop phytotoxicity) | 5 (90% or more of herbicidal effect and crop phytotoxicity) | 5 (90% or more of herbicidal effect and crop phytotoxicity) | 5 (90% or more of herbicidal effect and crop phytotoxicity) | 5 (90% or more of herbicidal effect and crop phytotoxicity) | 5 (90% or more of herbicidal effect and crop phytotoxicity) | 5 (90% or more of herbicidal effect and crop phytotoxicity) | 5 (90% or more of herbicidal effect and crop phytotoxicity) | 5 (90% or more of herbicidal effect and crop phytotoxicity) | 5 (90% or more of herbicidal effect and crop phytotoxicity)
7 | Cn1ncc(C(=O)c2ccc(C(F)(F)F)n(CC3OCCO3)c2=O)c1O [IV-119] | 4 (70 to less than 90% of herbicidal effect and crop phytotoxicity) | 4 (70 to less than 90% of herbicidal effect and crop phytotoxicity) | 5 (90% or more of herbicidal effect and crop phytotoxicity) | 5 (90% or more of herbicidal effect and crop phytotoxicity) | 5 (90% or more of herbicidal effect and crop phytotoxicity) | 5 (90% or more of herbicidal effect and crop phytotoxicity) | 5 (90% or more of herbicidal effect and crop phytotoxicity) | 5 (90% or more of herbicidal effect and crop phytotoxicity) | 5 (90% or more of herbicidal effect and crop phytotoxicity) | 5 (90% or more of herbicidal effect and crop phytotoxicity) | 5 (90% or more of herbicidal effect and crop phytotoxicity)
8 | Cn1ncc(C(=O)c2ccc(C(F)(F)F)n(CC3CCCO3)c2=O)c1O (stereo not shown) [IV-129] | 4 (70 to less than 90% of herbicidal effect and crop phytotoxicity) | 5 (90% or more of herbicidal effect and crop phytotoxicity) | 5 (90% or more of herbicidal effect and crop phytotoxicity) | 5 (90% or more of herbicidal effect and crop phytotoxicity) | 5 (90% or more of herbicidal effect and crop phytotoxicity) | 5 (90% or more of herbicidal effect and crop phytotoxicity) | 5 (90% or more of herbicidal effect and crop phytotoxicity) | 3 (50 to less than 70% of herbicidal effect and crop phytotoxicity) | 5 (90% or more of herbicidal effect and crop phytotoxicity) | 5 (90% or more of herbicidal effect and crop phytotoxicity) | 4 (70 to less than 90% of herbicidal effect and crop phytotoxicity)
